Test results published in PMC6044610 (ACS Omega, 2016).

Tests used:
[1] = cited from earlier work
[2] = system: P. falciparum (3D7) trophozoite development; type: cell-based, Plasmodium falciparum; settings: 5 μM, ~24 h treatment from midring stage
[3] = system: P. falciparum (CQ-resistant) W2 strain; assay: In vitro antimalarial SYBR Green I fluorescence assay, Pf W2; type: cell-based; settings: Plasmodium falciparum, W2, 72 h, read-out: IC50 Pf W2

## CCN(CC)CCCC(C)Nc1ccnc2cc(Cl)ccc12 (stereo not drawn) [CQ, chloroquine]
[1]
  log Kass with heme, reported value: 5.15
[2]
  hemozoin in the food vacuole / parasite development after treatment: no hemozoin was seen in the food vacuole
[3]
  IC50: 430.6 ± 1.05 nM
